Assay results reported in ChEMBL document CHEMBL4651402, “Screening of ~5500 FDA-approved drugs and clinical candidates for anti-SARS-CoV-2 activity” (2021).

Tested on: SARS-CoV-2
Assay: microbe, parasite or virus in culture
Settings: Severe acute respiratory syndrome coronavirus 2, Vero C1008, 48 h

SMILES	IC50 [µM]	IC50 (read-out: pIC50 (converted)) [µM]
CC(C)c1c(C(=O)Nc2ccccc2)c(-c2ccccc2)c(-c2ccc(F)cc2)n1CC[C@@H](O)C[C@@H](O)CC(=O)O [ATORVASTATIN]	> 20	> 20
CCCCCNC(=N)N/N=C/c1c[nH]c2ccc(OC)cc12 [TEGASEROD]	> 20	> 20
CC(C[N+](C)(C)C)OC(N)=O (configuration not stated) [BETHANECHOL]	> 20	> 20
CNCCOC(c1ccccc1)c1ccccc1C (configuration not stated) [TOFENACIN]	> 20	> 20
COc1ccc(C[C@H]2NC[C@H](O)[C@H]2OC(C)=O)cc1 [ANISOMYCIN]	> 20	> 20
FC(F)(F)c1ccc(CNc2ccc(Cc3c[nH]c4ncc(Cl)cc34)cn2)cn1 [PEXIDARTINIB]	> 20	> 20
c1ccc2c(SC3=NCCN3)c[nH]c2c1 [TINAZOLINE]	> 20	> 20
Clc1ccc(C(Cn2ccnc2)OCc2c(Cl)cccc2Cl)c(Cl)c1 (configuration not stated) [ISOCONAZOLE]	> 20	> 20
CNS(=O)(=O)CCc1ccc2[nH]cc(C3CCN(C)CC3)c2c1	> 20	> 20
O=C(O)CCCc1ccccc1 [PHENYLBUTANOIC ACID]	> 20	> 20
CC(C)CCCCCCCCCCCCCCC(=O)O	> 20	> 20
Cc1nc(C(=O)N2CCCC[C@H]2CNC(=O)c2cccc3occc23)c(-c2ccc(F)cc2)s1 [SB-649868]	> 20	> 20
COc1ccc(OC)c(C(O)C(C)NC(C)(C)C)c1 (configuration not stated) [BUTOXAMINE]	> 20	> 20
CC1(C)[C@@H](O[C@H]2O[C@H](C(=O)O)[C@@H](O)[C@H](O)[C@H]2O[C@@H]2O[C@H](C(=O)O)[C@@H](O)[C@H](O)[C@H]2O)CC[C@]2(C)[C@H]3C(=O)C=C4[C@@H]5C[C@@](C)(C(=O)O)CC[C@]5(C)CC[C@@]4(C)[C@]3(C)CC[C@@H]12 [GLYCYRRHIZIN]	> 20	> 20
CCN(CC)CC(C)(C)COC(=O)c1ccc(N)cc1	> 20	> 20
CN1C(C(=O)Nc2ccccn2)=C(O)c2ccccc2S1(=O)=O [PIROXICAM]	> 20	> 20
C/C=C/CC(C)C(O)C1C(=O)NC(CC)C(=O)N(C)CC(=O)N(C)C(C(C)CC)C(=O)NC(C(C)C)C(=O)N(C)C(CC(C)C)C(=O)NC(C)C(=O)NC(C)C(=O)N(C)C(CC(C)C)C(=O)N(C)C(CC(C)C)C(=O)N(C)C(C(C)C)C(=O)N1C (configuration not stated)	> 20	> 20
CCCCC[C@H](O)/C=C/[C@@H]1[C@@H](C/C=C\CCCC(=O)O)[C@@H](O)C[C@H]1O [DINOPROST]	> 20	> 20
C[N+]1(C)CCC(=C(c2ccccc2)c2ccccc2)CC1	> 20	> 20
NCCc1cc[nH]n1 [BETAZOLE]	> 20	> 20
O=C(O)c1c(O)c(-c2ccccc2)nc2ccccc12 [OXYCINCHOPHEN]	> 20	> 20
CCOc1cccnc1Oc1cncc(-c2ncc(C(=O)N[C@H]3CCOC3)cn2)c1 [PF-06865571]	> 20	> 20
CCN1C(=O)OC(C)(C)C1=O [ETHADIONE]	> 20	> 20
CCc1[nH]c(=O)[nH]c1C(=O)c1ccncc1 [PIROXIMONE]	> 20	> 20

SMILES	IC50 [µM]	IC50 (read-out: pIC50 (converted)) [µM]
[2H]C1([2H])[C@H]2C[C@@H](Oc3ccc(C(F)(F)F)cn3)[C@H](C2)N1C(=O)c1cccc(F)c1-c1ncccn1 [TEBIDEUTOREXANT]	> 20	> 20
CC(C)Nc1ccc(Nc2ccccc2)cc1	> 20	> 20
O=C(O)COc1ccc(CCNS(=O)(=O)c2ccccc2)cc1 [SULOTROBAN]	> 20	> 20
CCn1ccnc1CC1COc2ccccc2O1 (configuration not stated) [IMILOXAN]	> 20	> 20
CCCc1nc(C(C)(C)O)c(C(=O)O)n1Cc1ccc(-c2ccccc2-c2nnn[nH]2)cc1 [OLMESARTAN]	> 20	> 20
COc1cc([C@@H]2Oc3cc([C@H]4Oc5cc(O)cc(O)c5C(=O)[C@@H]4O)ccc3O[C@H]2CO)ccc1O [SILYBIN B]	> 20	> 20
O=c1c(-c2ccc(O)cc2)coc2c(C3O[C@H](CO)[C@@H](O)[C@H](O)[C@H]3O)c(O)ccc12 (some centres not stated)	> 20	> 20
O=C(O)C1CC(O)CN1 (configuration not stated)	> 20	> 20
CNC(=O)c1ccc(C)c(-n2c(C)cc(OCc3ccc(F)cc3F)c(Br)c2=O)c1 [PH-797804]	> 20	> 20
CC/C(=C(\CC)c1ccc(OP(=O)(O)O)cc1)c1ccc(OP(=O)(O)O)cc1	> 20	> 20
COc1ccc(C(=O)c2ccccc2O)c(O)c1 [DIOXYBENZONE]	> 20	> 20
OC(CSc1ncnc2[nH]cnc12)CN1CCN(C(c2ccc(F)cc2)c2ccc(F)cc2)CC1 (configuration not stated) [CARSATRIN]	> 20	> 20
Cc1cc(CCCOc2c(C)cc(-c3noc(C(F)(F)F)n3)cc2C)on1 [PLECONARIL]	> 20	> 20
CC(C)(C)c1ccc(Oc2ccc(N)cn2)cc1 [LIMANTRAFIN]	> 20	> 20
O=C(O)c1cc(=O)c2ccccc2[nH]1 [TRANSTORINE]	> 20	> 20
Cc1cc(-n2nc3ccc(Cl)cc3n2)c(O)c(C(C)(C)C)c1 [BUMETRIZOLE]	> 20	> 20
COc1cc2nccc(Oc3ccc(NC(=O)Nc4cc(C)on4)c(Cl)c3)c2cc1OC [TIVOZANIB]	> 20	> 20
CN(C)Cc1c[nH]c2ccccc12 [GRAMINE]	> 20	> 20
CCc1c(C)[nH]c2c1C(=O)C(CN1CCOCC1)CC2 (configuration not stated) [MOLINDONE]	> 20	> 20
CC(C)CC(NC(=O)C(Cc1ccccc1)NC(=O)CNC(=O)[C@H](C)NC(=O)C(N)Cc1ccc(O)cc1)C(=O)N[C@H](CCCNC(=N)N)C(=O)O (some centres not stated)	> 20	> 20
CN(C)CCCC1c2ccccc2Nc2ccc(Cl)cc21 (configuration not stated) [CLOMACRAN]	> 20	> 20
Cc1cc(NC(=O)C2=C(O)c3ccccc3S(=O)(=O)N2C)no1 [ISOXICAM]	> 20	> 20
CC1(O)CCC2C3CCC4=CC(=O)CCC4C3CCC21C (configuration not stated)	> 20	> 20

SMILES	IC50 [µM]	IC50 (read-out: pIC50 (converted)) [µM]
CC(=O)Nc1ccc(/C=N/NC(N)=S)cc1 [AMITHIOZONE]	> 20	> 20
COc1ccc(-n2nc3c4c([nH]cc-3c2=O)CCCCC4)cc1	> 20	> 20
NNCc1ccccc1 [BENZYLHYDRAZINE]	> 20	> 20
C[N+](C)(C)C[C@H](O)CC(=O)O [DEXTROCARNITINE]	> 20	> 20
NS(=O)(=O)c1ccc(N2CCN(CC[C@H]3OCCc4ccccc43)CC2)cc1	> 20	> 20
Cc1ccc(Cn2c(NC3CCNCC3)nc3cccnc32)o1 [NOBERASTINE]	> 20	> 20
CC(=O)N[C@H]1[C@H](O[C@@H]2c3ccc(c(Cl)c3)Oc3cc4cc(c3O[C@@H]3O[C@H](CO)[C@@H](O)[C@H](O)[C@H]3NC(=O)CCCCCCC(C)C)Oc3ccc(cc3Cl)C[C@H]3NC(=O)[C@@H](N)c5ccc(O)c(c5)Oc5cc(O)cc(c5)[C@H](NC3=O)C(=O)N[C@H]4C(=O)N[C@H]3C(=O)N[C@@H]2C(=O)N[C@@H](C(=O)O)c2cc(O)cc(O[C@H]4O[C@H](CO)[C@@H](O)[C@H](O)[C@@H]4O)c2-c2cc3ccc2O)O[C@H](CO)[C@@H](O)[C@@H]1O	> 20	> 20
CC(C)CCCC(C)C1CCC2C3C=CC4=CC(=O)CCC4(C)C3CCC12C (configuration not stated)	> 20	> 20
COc1cc([C@H]2Oc3cc([C@H]4Oc5cc(O)cc(O)c5C(=O)[C@@H]4O)ccc3O[C@@H]2CO)ccc1O [SILYBIN A]	> 20	> 20
CC(=O)C1CCC2C3CCC4=CC(=O)CCC4(C)C3C(O)CC12C (configuration not stated)	> 20	> 20
COc1cc(NS(=O)(=O)c2ccc(N)cc2)nc(OC)n1 [SULFADIMETHOXINE]	> 20	> 20
C=CC(=O)Nc1cccc(Oc2nc(Nc3ccc(N4CCN(C)CC4)c(F)c3)nc3[nH]ccc23)c1 [ABIVERTINIB]	> 20	> 20
Nc1c(CC(=O)O)cccc1C(=O)c1ccc(Br)cc1 [BROMFENAC]	> 20	> 20
COc1cc2nccc(Oc3ccc(NC(=O)c4cn(C(C)C)c(=O)n(-c5ccc(F)cc5)c4=O)cc3F)c2cc1OC	> 20	> 20
CN1C[C@H](C(=O)N[C@]2(C)O[C@@]3(O)[C@@H]4CCCN4C(=O)[C@H](Cc4ccccc4)N3C2=O)C=C2c3cccc4[nH]cc(c34)C[C@H]21 [ERGOTAMINE]	> 20	> 20
NC(=O)c1ccc[n+]([C@@H]2O[C@H](COP(=O)([O-])OP(=O)(O)OC[C@H]3O[C@@H](n4cnc5c(N)ncnc54)[C@H](O)[C@@H]3O)[C@@H](O)[C@H]2O)c1 [NADIDE]	> 20	> 20
COC(=O)C1=C(C)NC(C)=C(C(=O)OC(C)C)C1c1cccc2nonc12 (configuration not stated) [ISRADIPINE]	> 20	> 20
OC(Cn1ccnc1)c1ccc(CCc2ccccc2)cc1 (configuration not stated) [DENZIMOL]	> 20	> 20
Cn1c(=O)[nH]c(=O)c2[nH]cnc21 [3-METHYLXANTHINE]	> 20	> 20
CC(C)C(C)/C=C/C(C)C1CCC2C3=CC=C4CC(O)CCC4(C)C3CCC21C (configuration not stated)	> 20	> 20
Cc1c2ccncc2c(C)c2c1[nH]c1ccccc12 [ELLIPTECINE]	> 20	> 20
c1ccc2c(c1)CCCC2C1=NCCN1 (configuration not stated) [TETRAHYDROZOLINE]	> 20	> 20
O=c1[nH]c2ccccc2n1C1CCN(CCOc2ccccc2)CC1 [OXIPEROMIDE]	> 20	> 20
